In assay [1] the test system is YST-1. Nature of the assay: drug sensitivity score (DSS, CellTiter-Glo viability, 72 h) (DSS (dimensionless)); higher = more sensitive; extreme values may be limits of the assay. The essentials: (§1)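 MPNST cell lines and primary human Schwann cells (750–1000 cells per well) went into 384-well plates preprinted with each compound at five concentrations in 10-fold steps. Plates were incubated 72 h at 37 °C, 5% CO2. Viability was read as CellTiter-Glo ATP luminescence, scaled between vehicle and positive-control wells, with duplicates averaged where present. Percent inhibition is at the top concentration; drug sensitivity score and relative IC50 (censored at top concentration) come from four-parameter logistic fits.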

For assay [2], the system named is HSC2 (primary human Schwann cells). The assay is described as above. A digest of the protocol:
as §1

The subject of assay [3] is S1507-2. The assay is described as above. A digest of the protocol: as §1
For assay [4], the system named is S462. Described as above. A digest of the protocol: as §1
The subject of assay [5] is STS26T. The assay is described as above. The essentials:
as §1

Assay [6] deals with ST8814. The description is as above. The essentials:
as §1

Assay [7] concerns HS-Sch-2. Described as above. The essentials: as §1
Assay [8] relates to HS-PSS. The description is as above. A digest of the protocol:
as §1

The test system of assay [9] is HSC1 (primary human Schwann cells). Described as above. A digest of the protocol: as §1
For assay [10], the system named is YST-1. Nature of the assay: % inhibition of CellTiter-Glo viability at highest tested concentration (72 h), relative to DMSO and benzethonium chloride controls; higher = more inhibition. The essentials: as §1
The subject of assay [11] is HSC2 (primary human Schwann cells). Described as above. A digest of the protocol:
as §1

The subject of assay [12] is S1507-2. Described as above. The essentials:
as §1

Assay [13] deals with S462. The assay is described as above. A digest of the protocol: as §1
Assay [14] has as its system STS26T. The assay is described as above. The essentials: as §1
Assay [15] has as its system ST8814. The description is as above. A digest of the protocol:
as §1

In assay [16] the test system is HS-Sch-2. The assay is described as above. The essentials:
as §1

The subject of assay [17] is HS-PSS. The description is as above. The essentials: as §1
For assay [18], the system named is HSC1 (primary human Schwann cells). The assay is described as above. A digest of the protocol: as §1
Assay [19] relates to HSC2 (primary human Schwann cells). Nature of the assay: drug sensitivity score (DSS, CellTox-Green cytotoxicity, 72 h) (DSS (dimensionless)); higher = more cytotoxic; extreme values may be limits of the assay. The essentials:
(§2)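 MPNST cell lines and primary human Schwann cells were incubated 72 h at 37 °C in 384-well plates holding five 10-fold compound dilutions. CellTox-Green was added before seeding at a final 1:1000 dilution and reported fluorescence from DNA released by disrupted cells. Signals were scaled to vehicle and positive-control wells, and cultures failing plate quality control were dropped. Drug sensitivity score and relative IC50 come from four-parameter logistic fits, with IC50 censored at the top concentration.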

In assay [20] the test system is S1507-2. The description is as above. The essentials: as §2
The test system of assay [21] is STS26T. The assay is described as above. A digest of the protocol: as §2
The test system of assay [22] is ST8814. Described as above. A digest of the protocol:
as §2

The subject of assay [23] is HS-PSS. The description is as above. A digest of the protocol:
as §2

Assay [24] relates to HSC1 (primary human Schwann cells). The assay is described as above. The essentials:
as §2

SMILES strings stand for the structures. ± gives the standard deviation of the averaged measurements.

As to `COc1cc([C@@H]2c3cc4c(cc3[C@@H](O[C@@H]3O[C@@H]5CO[C@@H](C)O[C@H]5[C@H](O)[C@H]3O)[C@H]3COC(=O)[C@H]23)OCO4)cc(OC)c1O` [Etoposide] (max concentration tested 10000 nM), the drug sensitivity score was determined as 14.5 in the assay with YST-1 [1]; 11.2 in assay [2]; 5.59 ± 0.81 in the assay with S1507-2 [3]; 11.55 ± 0.037 in the assay with S462 [4]; 7.33 with STS26T [5]; 5.79 with ST8814 [6]. In addition, the drug sensitivity score in the assay with HS-Sch-2 [7] came out at 8.86; with HS-PSS [8], 3.08; in assay [9], 7.17; in assay [19] it was 3.62; with S1507-2 [20] it was 1.82 ± 2.4; in the assay with STS26T [21], 5.16. In addition, the drug sensitivity score with ST8814 [22] was 3.52; in the assay with HS-PSS [23], 0; in [24] it was 2.21. In addition, the “% inhibition” value turned out to be 73.5% in the assay with YST-1 [10]; 63.6% in assay [11]; 59.8 ± 1% in the assay on S1507-2 [12]; 90.4 ± 2.4% with S462 [13]; 68% in the assay on STS26T [14]; 70.7% in the assay with ST8814 [15]. Moreover, the “% inhibition” value with HS-Sch-2 [16] worked out at 79.1%; with HS-PSS [17], 33%; in assay [18], 57.3%.
In the case of `CO[C@H]1C[C@@H]2CC[C@@H](C)[C@@](O)(O2)C(=O)C(=O)N2CCCC[C@H]2C(=O)O[C@H]([C@H](C)C[C@@H]2CC[C@@H](OCCO)[C@H](OC)C2)CC(=O)[C@H](C)/C=C(\C)[C@@H](O)[C@@H](OC)C(=O)[C@H](C)C[C@H](C)/C=C/C=C/C=C/1C` [Everolimus] (max concentration tested 100 nM), the drug sensitivity score with YST-1 [1] worked out at 4.45; in assay [2], 15.8; in the assay with S1507-2 [3] it was 6.7 ± 1.1; in the assay with S462 [4], 8.44 ± 0.54; in the assay with STS26T [5], 15.6; in the assay with ST8814 [6] it was 7.31. Moreover, the drug sensitivity score turned out to be 3.17 in the assay with HS-Sch-2 [7]; 3.56 in the assay with HS-PSS [8]; 17.2 in assay [9]; 0 in assay [19]; 6.46 ± 9.1 in the assay with S1507-2 [20]; 0 with STS26T [21]. In addition, the drug sensitivity score (in the assay on ST8814 [22]; in the assay on HS-PSS [23]; in [24]) was 0 each time. Also, the “% inhibition” value is 38.7% in the assay with YST-1 [10]; 48.5% in assay [11]; 31 ± 1.7% in the assay on S1507-2 [12]; 29.4 ± 7.3% in the assay with S462 [13]; 45.4% with STS26T [14]; 28.3% with ST8814 [15]. Further, the results for the “% inhibition” value (with HS-Sch-2 [16]; in the assay on HS-PSS [17]; in assay [18]) were 18.4%, 23.8% and 44.5%, respectively.
For the compound `C=C1C[C@@H]2[C@H](CC[C@]3(C)C(=O)CC[C@@H]23)[C@@]2(C)C=CC(=O)C=C12` [Exemestane] (max concentration tested 10000 nM), the drug sensitivity score in the assay with YST-1 [1] was 0; in assay [2] it was 0; with S1507-2 [3], 0.225 ± 0.26; in the assay on S462 [4], 0.804 ± 0.28; in the assay on STS26T [5] it was 0; in the assay with ST8814 [6] it was 0. Besides, the drug sensitivity score came to 0.78 in the assay with HS-Sch-2 [7]; 1.87 with HS-PSS [8]; 0 in assay [9]; 0 in assay [19]; 0 in the assay on S1507-2 [20]; 0 in the assay on STS26T [21]. Also, the drug sensitivity score (with ST8814 [22]; with HS-PSS [23]; in assay [24]) was 0 in each case. Moreover, the “% inhibition” value in the assay with YST-1 [10] was -11.7%; in assay [11], 6.18%; with S1507-2 [12], 12 ± 1.6%; with S462 [13] it was 22.1 ± 2%; in the assay with STS26T [14], 9.39%; in the assay with ST8814 [15], 5.32%. In addition, the “% inhibition” value with HS-Sch-2 [16] was 22.9%; in the assay on HS-PSS [17] it was 26.7%; in [18] it was 3.19%.

Source of the values: the supplement of paper PMC5579334.
